Data on one compound can be found in article PMC11930087, “Mobility of four structural regions drives isoform-specific properties of photoenzyme LPOR in plants” (The Journal of Biological Chemistry, 2025).

Assay [1] deals with T1, TaPOR1 (Triticum aestivum, UniProt Q41578).
T1 construct: gene PORA
T1 sequence (Q41578 75-388): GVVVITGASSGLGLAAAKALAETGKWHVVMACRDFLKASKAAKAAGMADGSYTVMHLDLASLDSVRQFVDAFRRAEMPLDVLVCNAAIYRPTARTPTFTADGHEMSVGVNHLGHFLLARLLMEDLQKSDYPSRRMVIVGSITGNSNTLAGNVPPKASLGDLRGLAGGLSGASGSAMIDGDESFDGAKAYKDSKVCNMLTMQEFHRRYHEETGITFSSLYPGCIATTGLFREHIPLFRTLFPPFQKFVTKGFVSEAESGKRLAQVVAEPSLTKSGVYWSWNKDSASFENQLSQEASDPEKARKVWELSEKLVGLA
Description: […] K Pchlide fluorescence in darkness, F648/F635 ratio vs NADPH, hyperbolic fit. Format: binding. To be noted: lipid-free; 5 μM Pchlide, 15 μM LPOR, pH 7.1, room-temperature dark incubation; apparent parameter, exact value in supplement; read-out: KM^D.

The target in a further assay is T2, AtPORC (Arabidopsis thaliana, UniProt O48741).
T2 construct: gene PORC
T2 sequence (O48741 68-401): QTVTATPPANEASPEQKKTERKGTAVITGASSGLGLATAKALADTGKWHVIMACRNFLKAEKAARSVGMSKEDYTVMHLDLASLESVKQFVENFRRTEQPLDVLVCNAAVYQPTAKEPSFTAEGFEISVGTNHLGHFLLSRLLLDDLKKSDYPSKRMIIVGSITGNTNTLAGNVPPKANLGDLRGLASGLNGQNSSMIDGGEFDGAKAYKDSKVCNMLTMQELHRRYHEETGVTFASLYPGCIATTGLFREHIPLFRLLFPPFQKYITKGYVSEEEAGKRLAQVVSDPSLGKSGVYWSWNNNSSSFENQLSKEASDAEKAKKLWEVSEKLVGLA
The experiment in a line: biochemical. To be noted: 400 uM OPT lipids, 5 uM Pchlide, 15 uM LPOR. How it is done:
(§1) (Figs. 3A, S2). […] The resulting plots resembled saturation curves, to which a hyperbolic function similar to the Michaelis–Menten equation could be fitted (Figs. 3B, S3, Materials and Methods). […] However, KM^L values were consistently lower than KM^D values. […] The addition of 400 μM OPT lipids lowered the KM^D constant for all isoforms, except for SlPOR1, SlPOR3, HaPOR1, HaPOR2, and PeaPOR, where the constant remained unchanged within error estimates. […] Shaded areas represent the SD between replicates. […] A fit of a modified Michaelis–Menten equation is shown, along with the graphical representation of KM^D (B) or KM^L (C). Spectra corresponding to the given F648/F635 values (B) or F Chlide/F Pchlide values (C) are shown on the right side of the plot. D, relationship between KM^D and KM^L for investigated isoforms. The overall distribution of data points is shown in gray. Error bars represent the uncertainty associated with the fitted constant KM^x. Closed symbols represent constants determined for samples not supplemented with lipids, while open symbols these determined in the presence of 400 μM OPT lipids. LPOR, light-dependent protochlorophyllide oxidoreductase; Pchlide, protochlorophyllide; Chlide, chlorophyllide.

The target of another assay is T3, HaPOR3 (Helianthus annuus, UniProt A0A251UT40).
T3 construct: gene POR; transit peptide removed; pET15b
T3 sequence (A0A251UT40 51-384): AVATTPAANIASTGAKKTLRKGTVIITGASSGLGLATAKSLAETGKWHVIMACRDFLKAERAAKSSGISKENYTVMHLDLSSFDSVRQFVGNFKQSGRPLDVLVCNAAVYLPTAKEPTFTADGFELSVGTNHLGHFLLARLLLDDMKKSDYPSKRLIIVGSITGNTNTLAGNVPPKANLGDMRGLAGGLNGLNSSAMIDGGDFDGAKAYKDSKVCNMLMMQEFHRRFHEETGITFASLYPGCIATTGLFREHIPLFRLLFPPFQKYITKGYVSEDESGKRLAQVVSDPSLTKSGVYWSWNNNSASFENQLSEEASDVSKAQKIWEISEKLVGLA
Description: biochemical. As to conditions: 400 uM OPT lipids, 5 uM Pchlide, 15 uM LPOR. How it is done:
as §1

For the next assay, the target named is T4, PeaPOR (Lathyrus oleraceus, UniProt Q01289).
T4 construct: gene 3PCR; transit peptide removed; pET15b
T4 sequence (Q01289 65-399): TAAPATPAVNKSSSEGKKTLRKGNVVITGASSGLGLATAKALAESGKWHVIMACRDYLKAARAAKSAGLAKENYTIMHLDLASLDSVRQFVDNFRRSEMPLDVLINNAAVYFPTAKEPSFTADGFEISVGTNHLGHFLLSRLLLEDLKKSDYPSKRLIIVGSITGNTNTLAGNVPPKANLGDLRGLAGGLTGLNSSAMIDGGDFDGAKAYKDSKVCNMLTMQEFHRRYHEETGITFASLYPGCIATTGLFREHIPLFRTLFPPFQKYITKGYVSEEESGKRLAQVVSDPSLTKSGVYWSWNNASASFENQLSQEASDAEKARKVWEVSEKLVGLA
Description: biochemical. To be noted: 5 uM Pchlide, 15 uM LPOR. How it is done:
as §1

For another assay, the target named is T5, PinPOR (Pinus mugo, UniProt Q41202).
T5 construct: transit peptide removed; pET15b
T5 sequence (Q41202 67-400): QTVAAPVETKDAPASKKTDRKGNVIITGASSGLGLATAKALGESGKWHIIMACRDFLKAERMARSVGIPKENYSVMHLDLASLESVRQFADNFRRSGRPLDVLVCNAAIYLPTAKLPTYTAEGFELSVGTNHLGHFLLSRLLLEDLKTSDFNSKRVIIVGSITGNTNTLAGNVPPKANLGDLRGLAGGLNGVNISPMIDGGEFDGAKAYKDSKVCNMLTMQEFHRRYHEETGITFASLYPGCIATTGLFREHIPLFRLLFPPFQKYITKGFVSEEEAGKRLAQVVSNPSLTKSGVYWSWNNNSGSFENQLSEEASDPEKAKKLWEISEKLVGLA
Description: biochemical. As to conditions: 5 uM Pchlide, 15 uM LPOR. How it is done:
as §1

For assay [2], the target named is T1, TaPOR1. Description: biochemical. As to conditions: 5 uM Pchlide, 15 uM LPOR. How it is done:
as §1

Each structure is given as a SMILES string.

Take `NC(=O)C1=CN([C@@H]2O[C@H](COP(=O)(O)OP(=O)(O)OC[C@H]3O[C@@H](n4cnc5c(N)ncnc54)[C@H](OP(=O)(O)O)[C@@H]3O)[C@@H](O)[C@H]2O)C=CC1` [NADPH]: the Kd at TaPOR1 [1] is more than 100 µM. In addition, the Michaelis-like constant in the dark (KM^D) on AtPORC amounted to 0.8 µM. The apparent Michaelis constant in dark (KM^D) on HaPOR3 was 3.9 µM; at PinPOR (no lipids) it was 4.3 µM. The apparent Michaelis constant in the dark (KM^D) at PeaPOR (400 uM OPT lipids) was 4.7 µM. This compound also had a Michaelis constant in the dark (KM^D) on PeaPOR (no lipids) of 10.8 µM. For the same compound, the Michaelis constant, dark (KM^D) on PinPOR (400 uM OPT lipids) was determined as 1.3 µM. Moreover, the Km (apparent, dark, KM^D) at TaPOR1 [2] (400 uM OPT lipids) worked out at 45.8 µM. The apparent Michaelis constant (KM^D) on TaPOR1 [2] (no lipids, dark) is 394 µM.
